Assay results taken from ChEMBL document CHEMBL3102855, “Synthesis of long-chain fatty acid derivatives as a novel anti-Alzheimer's agent” (Bioorg Med Chem Lett, 2014).
Calls of active or inactive are those of the source. The calls are words filed in the database; no cut-off is given here.

Each compound was assayed on Cortical neurone (assay: Induction of dendrite extension in rat cortical neurons assessed as inhibition of amyloid beta (25 to 35)-induced neuronal degeneration at 1 uM after 4 days by fluorescence microscopic analysis).
Assay type: functional

| Structure (SMILES) | Activity |
| --- | --- |
| CCCCCCCCCC/C=C\C/C=C\CCCCCCCCCCCCCCCCCCCCCC(=O)O | Active |
| CCCCCCCCCCCCC/C=C\CCCCCCCCCCCCCCCCCCCCCC(=O)O | Active |
| CC/C=C\CCCCCCCCC/C=C\CCCCCCCCCCC(=O)O | Active |
| CCCCCCC/C=C\CCCC/C=C\CCCCCCCCCCCCCCCCCCCCCC(=O)O | Active |
| CCCCCCCCCCCCCCCCC/C=C\CCCCCCCCCCCCCCCCCCCCCC(=O)O | Active |
| CCCCCCCCCCCCCCCCCCCCCCCCCCCC(=O)O | Active |
| CCCCCCCCCC/C=C\CCCCCCCCCC(=O)O | Active |
| CCCCCCCCCCCCC/C=C\CCCCCCCCCCCCCCCCCCCCCCO | Active |
| CCCCCCCCCCCCC/C=C\CCCCCCCCCCCCC(=O)O | Active |
| CC/C=C\CCCCCCCCC/C=C\CCC(=O)O | Active |
| CCCCCCCCCCCCCCCCCCCCCC(=O)O | Active |
| CCCCCCCCCCCCC/C=C\CCCCCCCCCCCCCO | Active |
| CC/C=C\CCCCCCCCC/C=C\CCCCCCCCCCCCCCCCCCCCCCCCCCCCCC(=O)O | Active |
| CCCCCCCCCCCCCCCCCCCCCCCCCCCCCCCCCCCCC(=O)O | Active |
| CC/C=C\CCCCCCCCC/C=C\CCCCCCCCCCCCCCCCCCCCCC(=O)O | Active |
| CCCCC/C=C\CCCCCC/C=C\CCCCCCCCCCCCCCCCCCCCCC(=O)O | Active |
| CC/C=C\CCCCCCCCC/C=C\CCCCCCCC(=O)O | Active |
